Test: Stability of MC2884 in cell culture medium (RP-HPLC)
Type: physicochemical
Procedure: The compound was dissolved in DMEM at 50 µM and its concentration was measured by RP-HPLC using a ONYX 50 × 2 mm ID C18 column operating at 600 µL/min. The gradient applied was from 1% solvent B to 70% solvent B in 10 minutes. Solvent A was water with added 0.1% trifluoroacetic acid (TFA) and solvent B was acetonitrile with added 0.1% TFA. The eluate was monitored using a diode array detector with wavelengths set between 200–320 nm. The compound was eluted at 11.1 min. Peak integration was carried out on the chromatogram extracted at […], which is one of the compound absorbance maxima. A calibration curve was built by injecting solutions of the compound in DMSO at concentrations ranging between 1.5 µM and 200 µM. After incubation in DMEM compound concentration was determined at time points ranging between 0 and 72 hrs. As shown, half of compound was degraded after 10 h. At 72 hrs it was fully degraded under these conditions.

For `O=C1/C(=C/c2cccc(Br)c2)CN(Cc2ccccc2)C/C1=C\c1cccc(Br)c1` [MC2884], the half-life at 50 µM (DMEM cell culture medium, read-out: half-life in cell culture media (converted)) was 600 min and the “time for total degradation in cell culture media” value (DMEM, 50 µM) was 72 h.
